Data from PubChem BioAssay (NCI).
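In this assay, cells in 96-well plates receive the compound at five concentrations for 48 hours. Endpoints are linearly interpolated between the surrounding concentrations. GI50 marks 50% less growth. TGI denotes the concentration required for complete inhibition of growth.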

system: SW-620 colon; experiment: DTP human tumour cell line panel, 48 h

| SMILES | TGI [µM] | GI50 [µM] |
| --- | --- | --- |
| CC1=C(CO)C2=C(C)C3(CC3)[C@@](C)(O)C(=O)C2=C1 | > 30.4 |  |
| CC(=O)NC1=N/C(=C\c2ccc(Cl)cc2)C(=O)N1/C=C1\C(=O)Oc2ccccc2C1=O | > 100 |  |
| O=[N+]([O-])c1cccc2ccc(N/N=C/c3ccccc3O)nc12 | > 100 | 3.88 |
| C=CCc1ccc(O)c(-c2ccc(O)c(CC=C)c2)c1 | 36.9 | 18.7 |
| Cc1nc2ccc(F)cc2c2c1CCN2c1ccc(Cl)cc1 | 54.8 |  |

system: SNB-19 CNS; experiment: DTP human tumour cell line panel, 48 h

| SMILES | TGI [µM] | GI50 [µM] |
| --- | --- | --- |
| COc1cc2c(cc1OC)C1C[C@]3(CCN1CC2)C(=O)N(c1ccccc1)C(=O)N3C(C)=O (some centres not stated) | > 200 |  |
| CC1=C(CO)C2=C(C)C3(CC3)[C@@](C)(O)C(=O)C2=C1 | 10.6 |  |
| CC(=O)NC1=N/C(=C\c2ccc(Cl)cc2)C(=O)N1/C=C1\C(=O)Oc2ccccc2C1=O | > 100 |  |
| O=[N+]([O-])c1cccc2ccc(N/N=C/c3ccccc3O)nc12 | > 100 | > 100 |
| C=CCc1ccc(O)c(-c2ccc(O)c(CC=C)c2)c1 | 37 | 21.1 |
| Cc1nc2ccc(F)cc2c2c1CCN2c1ccc(Cl)cc1 | > 100 |  |

system: CAKI-1 renal; experiment: DTP human tumour cell line panel, 48 h

| SMILES | TGI [µM] | GI50 [µM] |
| --- | --- | --- |
| COc1cc2c(cc1OC)C1C[C@]3(CCN1CC2)C(=O)N(c1ccccc1)C(=O)N3C(C)=O (some centres not stated) | > 200 |  |
| CC1=C(CO)C2=C(C)C3(CC3)[C@@](C)(O)C(=O)C2=C1 | 0.76 |  |
| CC(=O)NC1=N/C(=C\c2ccc(Cl)cc2)C(=O)N1/C=C1\C(=O)Oc2ccccc2C1=O | > 100 |  |
| O=[N+]([O-])c1cccc2ccc(N/N=C/c3ccccc3O)nc12 | > 100 | > 100 |
| C=CCc1ccc(O)c(-c2ccc(O)c(CC=C)c2)c1 | 29.4 | 14.1 |
| Cc1nc2ccc(F)cc2c2c1CCN2c1ccc(Cl)cc1 | 79.6 |  |

system: PC-3 prostate; experiment: DTP human tumour cell line panel, 48 h

| SMILES | TGI [µM] | GI50 [µM] |
| --- | --- | --- |
| COc1cc2c(cc1OC)C1C[C@]3(CCN1CC2)C(=O)N(c1ccccc1)C(=O)N3C(C)=O (some centres not stated) | > 200 |  |
| CC1=C(CO)C2=C(C)C3(CC3)[C@@](C)(O)C(=O)C2=C1 | 1.31 |  |
| CC(=O)NC1=N/C(=C\c2ccc(Cl)cc2)C(=O)N1/C=C1\C(=O)Oc2ccccc2C1=O | > 100 |  |
| O=[N+]([O-])c1cccc2ccc(N/N=C/c3ccccc3O)nc12 | > 100 | 4.67 |
| C=CCc1ccc(O)c(-c2ccc(O)c(CC=C)c2)c1 | 33.2 | 15.2 |
| Cc1nc2ccc(F)cc2c2c1CCN2c1ccc(Cl)cc1 | 22.7 |  |

system: UO-31 renal; experiment: DTP human tumour cell line panel, 48 h

| SMILES | TGI [µM] | GI50 [µM] |
| --- | --- | --- |
| COc1cc2c(cc1OC)C1C[C@]3(CCN1CC2)C(=O)N(c1ccccc1)C(=O)N3C(C)=O (some centres not stated) | > 200 |  |
| O=[N+]([O-])c1cccc2ccc(N/N=C/c3ccccc3O)nc12 | > 100 | > 39.9 |
| C=CCc1ccc(O)c(-c2ccc(O)c(CC=C)c2)c1 | 27.3 | 12.4 |
| Cc1nc2ccc(F)cc2c2c1CCN2c1ccc(Cl)cc1 | 78.3 |  |

system: MOLT-4 leukemia; experiment: DTP human tumour cell line panel, 48 h

| SMILES | TGI [µM] | GI50 [µM] |
| --- | --- | --- |
| CC(=O)NC1=N/C(=C\c2ccc(Cl)cc2)C(=O)N1/C=C1\C(=O)Oc2ccccc2C1=O | > 100 |  |
| O=[N+]([O-])c1cccc2ccc(N/N=C/c3ccccc3O)nc12 | 1.16 | 0.313 |
| C=CCc1ccc(O)c(-c2ccc(O)c(CC=C)c2)c1 | > 39.9 | 4.94 |

system: HT29 colon; experiment: DTP human tumour cell line panel, 48 h

| SMILES | TGI [µM] | GI50 [µM] |
| --- | --- | --- |
| COc1cc2c(cc1OC)C1C[C@]3(CCN1CC2)C(=O)N(c1ccccc1)C(=O)N3C(C)=O (some centres not stated) | > 200 |  |
| CC1=C(CO)C2=C(C)C3(CC3)[C@@](C)(O)C(=O)C2=C1 | 1.12 |  |
| CC(=O)NC1=N/C(=C\c2ccc(Cl)cc2)C(=O)N1/C=C1\C(=O)Oc2ccccc2C1=O | > 100 |  |
| O=[N+]([O-])c1cccc2ccc(N/N=C/c3ccccc3O)nc12 | > 100 | > 100 |
| C=CCc1ccc(O)c(-c2ccc(O)c(CC=C)c2)c1 | 53.8 | 23.3 |
| Cc1nc2ccc(F)cc2c2c1CCN2c1ccc(Cl)cc1 | 22.4 |  |

system: SK-MEL-2 melanoma; experiment: DTP human tumour cell line panel, 48 h

| SMILES | TGI [µM] |
| --- | --- |
| CC1=C(CO)C2=C(C)C3(CC3)[C@@](C)(O)C(=O)C2=C1 | 0.367 |
| CC(=O)NC1=N/C(=C\c2ccc(Cl)cc2)C(=O)N1/C=C1\C(=O)Oc2ccccc2C1=O | > 100 |
